How the values were obtained:
Assay type in all cases: biochemical
CDK5/p25 = molecular target: T1, CDK5/p25 (Homo sapiens, UniProt Q00535); assay: Enzymatic assay for CDK5 (LANCE Ultra kinase assay, FRET based); details: ATP at Km
T1 construct: purchased Invitrogen PR8543B
Description: (§1) Enzymatic Binding Assay Protocol for CDK1, CDK2, CDK5 and CDK7
(§2) Inhibition activity of the respective compound on CDK kinase under Km value of ATP was tested in FRET based The LANCE® Ultra kinase assay (Perkin Elmer), which uses a ULight™-labeled peptide substrate and an appropriate Europium-labeled anti-phospho-antibody. Test compounds were made with DMSO solutions, and then 4-fold serial dilutions for 8 doses were prepared using automated liquid handler (POD™ 810, Labcyte) and 80 nL/well of diluted compound solutions were added into the 384-well plates (Greiner, Cat #784075). And then 68 nM of ULight-MBP peptide (Perkin Elmer, Cat #TRF0109-M) and 5 ul/well of ATP (Sigma, Cat #A7699) were added to the plate. After 1 min centrifugation at 1000 rpm, purified CDKs/Cyclin complex were added with the following concentrations respectively. 24 uM for CDK1/Cyclin B (Invitrogen, Cat #PR4768C), 22 uM for CDK2/Cyclin A (Invitrogen, Cat #PV6290), 10 uM for CDK5/p25 (Invitrogen, Cat #PR8543B) and […] for CDK7/Cyclin H/MNAT1 (Invitrogen, Cat #PR6749B) were added to each corresponding plate for CDK1, CDK2, CDK5 and CDK7. Incubate at 23° C. for 60 min and then Eu-labeled anti-phospho-Myelin Basic Protein (PE, Cat #TRF0201-M) and EDTA (Invitrogen, Cat #15575038) mixture in Lance Detection Buffer (Perkin Elmer, Cat #CR97100) was added in each well. After additional incubation at 23° C. for 60 min, test articles were measured the fluorescence using Envision leader (Perkin Elmer, USA) [Laser as excitation light; […] as the first and the second emission filter]. Data were analyzed using XL Fit software.

CDK7/Cyclin H/MNAT1 = molecular target: T2, CDK7/Cyclin H/MNAT1 (Homo sapiens, UniProt P50613); assay: Enzymatic assay for CDK7 (LANCE Ultra kinase assay, FRET based); details: for IC50: ATP at Km
T2 construct: purchased Invitrogen PR6749B
T2 sequence (P50613 whole entry): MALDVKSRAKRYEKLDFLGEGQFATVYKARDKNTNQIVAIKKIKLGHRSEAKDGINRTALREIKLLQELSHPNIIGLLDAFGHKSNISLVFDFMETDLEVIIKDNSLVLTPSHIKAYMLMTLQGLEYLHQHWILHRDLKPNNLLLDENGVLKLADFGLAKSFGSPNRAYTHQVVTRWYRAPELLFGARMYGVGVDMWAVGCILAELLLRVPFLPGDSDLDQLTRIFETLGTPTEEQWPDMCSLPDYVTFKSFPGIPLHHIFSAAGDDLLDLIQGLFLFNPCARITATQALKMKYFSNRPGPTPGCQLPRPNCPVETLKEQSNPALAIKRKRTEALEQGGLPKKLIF
T2 sequence (P51946 whole entry partner): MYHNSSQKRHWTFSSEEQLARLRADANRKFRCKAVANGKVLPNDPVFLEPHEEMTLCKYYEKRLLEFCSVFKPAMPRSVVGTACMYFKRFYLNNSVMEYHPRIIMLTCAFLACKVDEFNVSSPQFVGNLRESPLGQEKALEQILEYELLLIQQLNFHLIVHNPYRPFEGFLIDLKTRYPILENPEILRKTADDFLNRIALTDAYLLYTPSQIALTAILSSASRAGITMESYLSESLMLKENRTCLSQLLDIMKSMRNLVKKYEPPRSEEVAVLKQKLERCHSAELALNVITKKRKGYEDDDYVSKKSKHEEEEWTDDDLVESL
T2 sequence (P51948 whole entry partner): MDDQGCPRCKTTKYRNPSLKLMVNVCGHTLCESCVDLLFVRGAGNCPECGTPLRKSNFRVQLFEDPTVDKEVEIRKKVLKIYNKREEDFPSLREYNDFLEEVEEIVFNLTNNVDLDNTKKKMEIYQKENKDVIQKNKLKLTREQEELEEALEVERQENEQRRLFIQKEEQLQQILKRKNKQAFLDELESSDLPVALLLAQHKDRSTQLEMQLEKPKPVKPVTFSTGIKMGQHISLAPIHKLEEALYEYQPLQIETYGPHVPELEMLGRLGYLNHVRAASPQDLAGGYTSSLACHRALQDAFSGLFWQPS
Description: as §1
(§3) Inhibition activity of the respective compound on CDK kinase under Km value of ATP was tested in FRET based The LANCE® Ultra kinase assay (Perkin Elmer), which uses a ULight™-labeled peptide substrate and an appropriate Europium-labeled anti-phospho-antibody. […] After 1 min centrifugation at 1000 rpm, purified CDKs/Cyclin complex were added with the following concentrations respectively. […] Data were analyzed using XL Fit software.

CDK1/Cyclin B = molecular target: T3, CDK1/Cyclin B (Homo sapiens, UniProt P06493); assay: Enzymatic assay for CDK1 (LANCE Ultra kinase assay, FRET based); details: ATP at Km; read-out: CDK1 enzymatic activity IC50
T3 construct: purchased Invitrogen PR4768C
T3 sequence (P06493 whole entry): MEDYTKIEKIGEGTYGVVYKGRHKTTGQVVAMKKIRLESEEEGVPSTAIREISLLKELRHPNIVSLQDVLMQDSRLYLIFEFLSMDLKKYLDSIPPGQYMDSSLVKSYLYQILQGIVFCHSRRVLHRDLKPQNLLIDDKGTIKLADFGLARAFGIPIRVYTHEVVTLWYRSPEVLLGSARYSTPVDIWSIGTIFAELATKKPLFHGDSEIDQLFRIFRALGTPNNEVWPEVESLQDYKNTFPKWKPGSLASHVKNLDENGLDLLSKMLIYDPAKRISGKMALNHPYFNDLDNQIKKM
T3 sequence (P14635 whole entry partner): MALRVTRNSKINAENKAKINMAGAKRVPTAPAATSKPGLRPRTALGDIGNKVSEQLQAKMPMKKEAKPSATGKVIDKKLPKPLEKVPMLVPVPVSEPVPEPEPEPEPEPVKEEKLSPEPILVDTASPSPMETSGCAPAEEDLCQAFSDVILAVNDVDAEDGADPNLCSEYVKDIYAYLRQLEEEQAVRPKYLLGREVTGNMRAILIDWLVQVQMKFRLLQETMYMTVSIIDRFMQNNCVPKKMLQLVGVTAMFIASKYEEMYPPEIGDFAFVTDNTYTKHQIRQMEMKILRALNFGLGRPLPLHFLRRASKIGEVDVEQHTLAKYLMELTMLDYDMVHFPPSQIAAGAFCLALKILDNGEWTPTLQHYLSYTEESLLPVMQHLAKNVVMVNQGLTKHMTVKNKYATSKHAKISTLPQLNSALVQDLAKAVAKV
Description: as §1, §3

CDK2/Cyclin A = molecular target: T4, CDK2/Cyclin A (Homo sapiens, UniProt P24941); assay: Enzymatic assay for CDK2 (LANCE Ultra kinase assay, FRET based); details: ATP at Km
T4 construct: purchased Invitrogen PV6290
Description: as §1, §2

T1 sequence (Q00535 whole entry): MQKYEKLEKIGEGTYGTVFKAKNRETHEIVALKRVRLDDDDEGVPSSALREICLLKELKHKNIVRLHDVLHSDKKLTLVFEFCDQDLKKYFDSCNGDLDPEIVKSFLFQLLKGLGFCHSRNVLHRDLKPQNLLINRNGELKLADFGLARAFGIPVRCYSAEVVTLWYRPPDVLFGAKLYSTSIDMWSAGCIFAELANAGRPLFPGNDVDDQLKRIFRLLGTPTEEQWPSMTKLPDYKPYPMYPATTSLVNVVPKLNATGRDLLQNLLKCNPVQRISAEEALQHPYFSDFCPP
T1 sequence (Q15078 99-307 partner limits assumed): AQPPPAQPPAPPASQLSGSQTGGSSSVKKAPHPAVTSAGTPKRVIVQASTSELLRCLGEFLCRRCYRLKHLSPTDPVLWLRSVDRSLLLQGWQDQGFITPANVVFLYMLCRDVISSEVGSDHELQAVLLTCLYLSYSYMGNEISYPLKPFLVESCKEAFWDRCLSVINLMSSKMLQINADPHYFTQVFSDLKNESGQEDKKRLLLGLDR

| IC50 (CDK5/p25) [nM] | IC50 (CDK7/Cyclin H/MNAT1) [nM] | CDK1/CDK7: Selectivity of CDK7 inhibition over CDK1 inhibition (CDK7/Cyclin H/MNAT1) | CDK2/CDK7: Selectivity of CDK7 inhibition over CDK2 inhibition (CDK7/Cyclin H/MNAT1) | CDK5/CDK7: Selectivity of CDK7 inhibition over CDK5 inhibition (CDK7/Cyclin H/MNAT1) | IC50 (CDK1/Cyclin B) [nM] | IC50 (CDK2/Cyclin A) [nM] | SMILES |
| --- | --- | --- | --- | --- | --- | --- | --- |
| > 1000 | < 100 | B (B indicates 50 < [fold] ≤ 500) | C (C indicates [fold] ≤ 50) | B (B indicates 50 < [fold] ≤ 500) | > 1000 | > 1000 | C=C(F)C(=O)Nc1ccc2c(-c3ccccc3CNc3nc(NC[C@@H]4CNCCO4)nc4c(C(C)C)cnn34)nccc2c1 [Compound 149] |
| > 1000 | < 100 | A (A indicates [fold] > 500) | A (A indicates [fold] > 500) | A (A indicates [fold] > 500) | > 1000 | > 1000 | CNS(=O)(=O)C[C@H]1CC[C@H](Nc2nc(NCc3ccccc3-c3nccc4cc(NC(=O)/C=C/CN(C)C)ccc34)n3ncc(C(C)C)c3n2)CC1 [Compound 134] |
| > 1000 | < 100 | A (A indicates [fold] > 500) | A (A indicates [fold] > 500) | A (A indicates [fold] > 500) | > 1000 | > 1000 | CC(C)c1cnn2c(NCc3ccccc3-c3nccc4cc(NC(=O)/C=C/CN(C)C)ccc34)nc(O[C@@H]3CCCNC3)nc12 [Compound 152] |
| > 1000 | < 100 | A (A indicates [fold] > 500) | A (A indicates [fold] > 500) | A (A indicates [fold] > 500) | > 1000 | > 1000 | CO[C@H]1CC[C@H](Nc2cc(NCc3ccccc3-c3nccc4cc(NC(=O)/C=C/CN(C)C)ccc34)n3ncc(C(C)C)c3n2)CC1 [Compound 132] |
| > 1000 | 100 to 1000 | B (B indicates 50 < [fold] ≤ 500) | B (B indicates 50 < [fold] ≤ 500) | B (B indicates 50 < [fold] ≤ 500) | > 1000 | > 1000 | CO[C@H]1CC[C@H](Nc2nc(NCc3c(C)cccc3-c3cc4cccc(NC(=O)/C=C/CN(C)C)c4[nH]3)n3ncc(C(C)C)c3n2)CC1 [Compound 129] |
| > 1000 | < 100 | A (A indicates [fold] > 500) | A (A indicates [fold] > 500) | A (A indicates [fold] > 500) | > 1000 | > 1000 | COC[C@H]1CC[C@H](Nc2nc(NCc3ccccc3-c3nccc4cc(NC(=O)/C=C/CN(C)C)ccc34)n3ncc(C(C)C)c3n2)CC1 [Compound 142] |
| > 1000 | < 100 | A (A indicates [fold] > 500) | A (A indicates [fold] > 500) | A (A indicates [fold] > 500) | > 1000 | > 1000 | Cc1cccc(-c2ccc3cccc(NC(=O)/C=C/CN(C)C)c3n2)c1CNc1nc(NCC2CCNCC2)nc2c(C(C)C)cnn12 [Compound 138] |
| > 1000 | 100 to 1000 | B (B indicates 50 < [fold] ≤ 500) | B (B indicates 50 < [fold] ≤ 500) | B (B indicates 50 < [fold] ≤ 500) | > 1000 | > 1000 | CC#CC(=O)Nc1ccc2c(-c3ccccc3CNc3nc(N[C@H]4CC[C@H](OC)CC4)nc4c(C(C)C)cnn34)nccc2c1 [Compound 135] |
| > 1000 | < 100 | A (A indicates [fold] > 500) | A (A indicates [fold] > 500) | A (A indicates [fold] > 500) | > 1000 | > 1000 | CO[C@H]1CNCC[C@@H]1CNc1nc(NCc2ccccc2-c2nccc3cc(NC(=O)/C=C/CN(C)C)ccc23)n2ncc(C(C)C)c2n1 [Compound 131] |
| > 1000 | < 100 | A (A indicates [fold] > 500) | A (A indicates [fold] > 500) | A (A indicates [fold] > 500) | > 1000 | > 1000 | C=C(F)C(=O)Nc1ccc2c(-c3ccccc3CNc3nc(N[C@H]4CC[C@H](NC)CC4)nc4c(C(C)C)cnn34)nccc2c1 [Compound 146] |
| > 1000 | 100 to 1000 | B (B indicates 50 < [fold] ≤ 500) | B (B indicates 50 < [fold] ≤ 500) | B (B indicates 50 < [fold] ≤ 500) | > 1000 | > 1000 | CO[C@H]1CC[C@H](Nc2nc(NCc3c(C)cccc3-n3ccc4cc(NC(=O)/C=C/CN(C)C)ccc43)n3ncc(C(C)C)c3n2)CC1 [Compound 140] |
| > 1000 | < 100 | B (B indicates 50 < [fold] ≤ 500) | B (B indicates 50 < [fold] ≤ 500) | B (B indicates 50 < [fold] ≤ 500) | > 1000 | > 1000 | C=C(F)C(=O)Nc1ccc2c(-c3ccccc3CNc3nc(NC[C@H]4CNCCO4)nc4c(C(C)C)cnn34)nccc2c1 [Compound 148] |
| > 1000 | 100 to 1000 | B (B indicates 50 < [fold] ≤ 500) | B (B indicates 50 < [fold] ≤ 500) | B (B indicates 50 < [fold] ≤ 500) | > 1000 | > 1000 | CC(C)c1cnn2c(NCc3ccccc3-c3cc4cccc(NC(=O)/C=C/CN(C)C)c4[nH]3)nc(N3CCC(Nc4nccs4)C3)nc12 (centres unmarked) [Compound 216] |
| > 1000 | < 100 | A (A indicates [fold] > 500) | A (A indicates [fold] > 500) | A (A indicates [fold] > 500) | > 1000 | > 1000 | Cc1cccc(-c2cc3cccc(NC(=O)/C=C/CN(C)C)c3[nH]2)c1CNc1nc(NCC2CCNCC2)nc2c(C(C)C)cnn12 [Compound 139] |
| > 1000 | 100 to 1000 | B (B indicates 50 < [fold] ≤ 500) | B (B indicates 50 < [fold] ≤ 500) | B (B indicates 50 < [fold] ≤ 500) | > 1000 | > 1000 | C=C(F)C(=O)Nc1ccc2c(-c3ccccc3CNc3nc(N[C@H]4CC[C@H](CS(=O)(=O)NC)CC4)nc4c(C(C)C)cnn34)nccc2c1 [Compound 143] |
| > 1000 | < 100 | A (A indicates [fold] > 500) | A (A indicates [fold] > 500) | A (A indicates [fold] > 500) | > 1000 | > 1000 | CO[C@H]1CC[C@H](Nc2nc(NCc3ccccc3-c3nccc4cc(NC(=O)/C=C/CN5CCCCC5)ccc34)n3ncc(C(C)C)c3n2)CC1 [Compound 155] |
| > 1000 | 100 to 1000 | B (B indicates 50 < [fold] ≤ 500) | B (B indicates 50 < [fold] ≤ 500) | B (B indicates 50 < [fold] ≤ 500) | > 1000 | > 1000 | COC1CCC(CNc2nc(NCc3ccccc3-c3nccc4cc(NC(=O)/C=C/CN(C)C)ccc34)n3ncc(C(C)C)c3n2)CC1 (centres unmarked) [Compound 136] |

Reference: patent US12606561B2, “Substituted pyrazolo[1,5-a][1,3,5]triazines as CDK inhibitors” (QURIENT CO., LTD., priority 2018, dated 2026)
